How the values were obtained:
[1] = cited from earlier work
Source text: First, we will contextualize bioavailability in the RID by including these parameters in the RID calculation (RIDF). […] The oral bioavailability of semaglutide is low but unknown per a medical information request at Novo Nordisk (B. Shah, personal communication, 20 June 2024). As such, oral bioavailability will be overestimated using the available parameter for semaglutide formulated with the permeability enhancer, SNAC (F < 0.01), though SNAC will not be present in this scenario [32]. This overestimate will assist in co ... || However, rather than simply converting the weekly dose to an equivalent daily dose, the estimation of RID can be further extrapolated to estimate steady-state conditions over the full week by considering the plasma concentration-time profile of the […]. […] Overgaard et al. published population pharmacokinetic parameters of semaglutide. According to this publication, the disposition of semaglutide after subcutaneous administration follows a 2-compartment model with first-order absorption from the injection ...

[2] = estimation of relative infant dose (RID, RIDF, RIDFP) from milk; assay type: in vivo, human; details: milk concentration assumed = LLOQ 5.7 ng/mL
Source text: The maternal weight-adjusted infant dose, the relative infant dose (RID%), is often used to assess infant exposure to drugs through breastfeeding. This parameter is the percentage of an infant dose of drug via a full diet of human milk relative to the maternal dose (mg/kg) over the same period. An RID of […] is often considered a safety threshold in risk assessments. (1) RID (%)=100 × infant daily oral dose per kg from milk/maternal daily dose per kg
The fraction’s numerator is computed as the product of the measured drug concentration present in milk times estimated milk intake of 150 mL/kg/day.
The RID calculation was adjusted to include parameters for bioavailability and extended dosing intervals, which will improve the interpretation of RID in the setting of subcutaneous semaglutide injection.
First, we will contextualize bioavailability in the RID by including these parameters in the RID calculation (RIDF). […] The oral bioavailability of semaglutide is low but unknown per a medical information request at Novo Nordisk (B. Shah, personal communication, 20 June 2024). As such, oral bioavailability will be overestimated using the available parameter for semaglutide formulated with the permeability enhancer, SNAC (F < 0.01), though SNAC will not be present in this scenario [32]. […]

breastfed infants = details: in vivo
Source text: This study utilized data collected from the InfantRisk Human Milk Biorepository (HMB) which has been approved on 22 February 2021 by the institutional ethics committee (A21-4214). The biorepository targets the collection of milk samples and self-related health information for mother and infant dyad via a questionnaire. […] Therefore, we prioritized collecting samples immediately before any dose changes, even if this occurred prior to reaching steady state concentrations, to maximize the informativeness of our analysis. Participants were asked to express milk samples after a minimum of three administrations of the same dose. Milk samples collected from 0, 12, and 24 h post-administration and their corresponding de-identified health questionnaires were released for 8 different individuals from the HMB for this study. If milk samples for multiple doses were provided, samples were only released from the biorepository for the highest dose collected closest to steady-state.

## CC[C@H](C)[C@H](NC(=O)[C@H](Cc1ccccc1)NC(=O)[C@H](CCC(=O)O)NC(=O)[C@H](CCCCNC(=O)COCCOCCNC(=O)COCCOCCNC(=O)CC[C@H](NC(=O)CCCCCCCCCCCCCCCCC(=O)O)C(=O)O)NC(=O)[C@H](C)NC(=O)[C@H](C)NC(=O)[C@H](CCC(N)=O)NC(=O)CNC(=O)[C@H](CCC(=O)O)NC(=O)[C@H](CC(C)C)NC(=O)[C@H](Cc1ccc(O)cc1)NC(=O)[C@H](CO)NC(=O)[C@H](CO)NC(=O)[C@@H](NC(=O)[C@H](CC(=O)O)NC(=O)[C@H](CO)NC(=O)[C@@H](NC(=O)[C@H](Cc1ccccc1)NC(=O)[C@@H](NC(=O)CNC(=O)[C@H](CCC(=O)O)NC(=O)C(C)(C)NC(=O)[C@@H](N)Cc1cnc[nH]1)[C@@H](C)O)[C@@H](C)O)C(C)C)C(=O)N[C@@H](C)C(=O)N[C@@H](Cc1c[nH]c2ccccc12)C(=O)N[C@@H](CC(C)C)C(=O)N[C@H](C(=O)N[C@@H](CCCNC(=N)N)C(=O)NCC(=O)N[C@@H](CCCNC(=N)N)C(=O)NCC(=O)O)C(C)C [semaglutide]
[1]; semaglutide formulated with the permeability enhancer SNAC, used as overestimate
  oral bioavailability (F): < 0.01
[1]; subcutaneous
  subcutaneous bioavailability: 89%
[2]; Equation (2), mean maternal weight 93 kg, mean 0.56 mg/week SC, F(oral) 0.01, F(S.C.) 89%, weekly dose/7
  RIDF (%), maximum possible: <1.12%
[2]; infant milk intake 150 mL/kg/day
  maximum dose to the infant possible without detecting semaglutide in milk: 855 ng/kg/day
Breastfed infants
  infant growth, all infants: unremarkable
  infant milestones, all infants: meeting or surpassing expected milestones

Reference: paper PMC11397063, “Subcutaneous Semaglutide during Breastfeeding: Infant Safety Regarding Drug Transfer into Human Milk” (Nutrients, 2024)
